Laboratory results from patent US20040067927A1, “Substituted alkyldiamines” (priority 2003, published 2004).
Square brackets hold non-standard residues; d marks the D form. Peptide text beside a SMILES is read from it. * marks the point of attachment. Sta = CC(C)C[C@H](N)[C@@H](O)CC(=O)O; Isovaleryl = CC(C)CC(=O)*

What was measured:
plasmepsin II = plasmepsin II (Plasmodium falciparum, UniProt P46925); assay: FRET assay for plasmepsin II; type: biochemical; conditions: pH 5, 37° C., 40 min, substrate 1 μM
Chain of plasmepsin II (P46925 125-453): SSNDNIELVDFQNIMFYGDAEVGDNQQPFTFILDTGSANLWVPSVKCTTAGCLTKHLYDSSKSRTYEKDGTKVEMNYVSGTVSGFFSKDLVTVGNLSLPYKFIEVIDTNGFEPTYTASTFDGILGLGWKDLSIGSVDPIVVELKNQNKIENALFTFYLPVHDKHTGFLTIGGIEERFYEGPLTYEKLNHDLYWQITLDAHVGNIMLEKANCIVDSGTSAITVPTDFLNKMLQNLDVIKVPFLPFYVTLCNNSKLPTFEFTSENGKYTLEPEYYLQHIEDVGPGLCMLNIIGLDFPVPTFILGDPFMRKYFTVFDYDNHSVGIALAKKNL
Description: The fluorescence resonance energy transfer (FRET) assay for HIV, plasmepsin II, human cathepsin D and human cathepsin E.
The assay conditions were selected according, to reports in the literature. The FRET assay was performed in white polysorp plates (Fluoronunc, cat n° 437842 A). The assay buffer consisted of 50 mM Na acetate pH 5, 12,5% glycerol, 0.1% BSA+392 mM NaCl (for HIV-protease). The incubates per well were composed of:
10 μl inhibitor (in DMSO)
10 μl of the corresponding substrate in DMSO (see table A) to a final concentration of 1 μM
20 μl of enzyme to a final amount of x ng per assay tube (x=10 ng/assay tube plasmepsin II, x=100 ng/assay tube HIV-protease, x=10 ng/assay tube human cathepsin E and x=20 ng/assay tube human cathepsin D)
The reactions were initiated by addition of the enzyme. The assay was incubated at 37° C. for 30 min (for human cathepsin E), 40 min (for plasmepsin II and HIV-protease) or 120 min (for human cathepsin D). The reactions were stopped by adding 10% (v/v) of a 1 M solution of Tris-base. Product-accumulation was monitored by measuring the fluorescence at 460 nm.
Auto-fluorescence of all the test substances is determined in assay buffer in the absence of substrate and enzyme and this value was subtracted from the final signal.

P. falciparum = conditions: cited from earlier work

| IC50 (plasmepsin II) | Structure (SMILES) | growth of P. falciparum in red blood cells in vitro (P. falciparum) |
| --- | --- | --- |
| 714 nM | CCCCCc1ccc(CN(CCN(CCCC)CCCC)Cc2ccc(-c3ccc(C#N)cc3)cc2)cc1 [Example 68] | – |
| 691 nM | CCCCCc1ccc(C(=O)N(CCCN(CCCC)CCCC)Cc2ccc(OCc3ccccc3)cc2)cc1 [Example 51] | – |
| 380 nM | CCCCCc1ccc(C(=O)N(CCN(CCCC)CCCC)Cc2ccc(-c3ccccn3)cc2)cc1 [Example 59] | – |
| 115 nM | CCCCCc1ccc(C(=O)N(CCN(CCCC)CCCC)Cc2ccc(OCc3ccccc3)cc2)cc1 [Example 1] | – |
| 312 nM | CCCCCc1ccc(C(=O)N(CCN(CCCC)CCCC)Cc2ccc(-c3ccccc3F)cc2)cc1 [Example 54] | – |
| 846 nM | CCCCCc1ccc(CN(CCN(CCCC)CCCC)Cc2ccc(OCc3ccccc3)cc2)cc1 [Example 20] | – |
| 198 nM | CCCCCc1ccc(C(=O)N(CCN(CCCC)CCCC)Cc2ccc(-c3ccc(CC(=O)OC)cc3)cc2)cc1 [Example 60] | – |
| 596 nM | CCCCCc1ccc(C(=O)N(CCN(CCCC)CCCC)Cc2ccc(C(F)(F)F)cc2)cc1 [Example 25] | – |
| 834 nM | CCCCCc1ccc(C(=O)N(CCCN(CCCC)CCCC)Cc2ccc(-c3ccccc3)cc2)cc1 [Example 52] | – |
| 8230 nM | CCCCCc1ccc(C(=O)N(CCN(CCO)CCO)Cc2ccc(OCC)cc2)cc1 [Example 69] | – |
| 57 nM | CCCCCc1ccc(C(=O)N(CCN(CCCC)CCCC)Cc2ccc(-c3ccc4c(c3)OCO4)cc2)cc1 [Example 61] | – |
| 754 nM | CCCCCc1ccc(C(=O)N(CCN(CCCC)CCCC)Cc2ccc(-c3cccc(OC(F)(F)F)c3)cc2)cc1 [Example 58] | – |
| 325 nM | CCCCCc1ccc(C(=O)N(CCN(CCCC)CCCC)Cc2ccc(OCCCC)cc2)cc1 [Example 38] | – |
| 659 nM | CCCCCc1ccc(C(=O)N(CCN(CCCC)CCCC)Cc2ccc(-c3ccccc3Cl)cc2)cc1 [Example 56] | – |
| 252 nM | CCCCCc1ccc(C(=O)N(CCN(CCCC)CCCC)Cc2ccc(-c3ccccc3)cc2)cc1 [Example 23] | – |
| 858 nM | CCCCCc1ccc(C(=O)N(CCN(CCCC)CCCC)Cc2ccc(OCc3ccccc3)c(OCc3ccccc3)c2)cc1 [Example 22] | – |
| 469 nM | CCCCCc1ccc(C(=O)N(CCN(CCCC)CCCC)Cc2ccc(Oc3ccccc3)cc2)cc1 [Example 21] | – |
| – | CC(C)CC(=O)N[C@H](C(=O)N[C@H](C(=O)N[C@@H](CC(C)C)[C@@H](O)CC(=O)N[C@@H](C)C(=O)N[C@@H](CC(C)C)[C@@H](O)CC(=O)O)C(C)C)C(C)C [Pepstatin] (Isovaleryl-VV[Sta]A[Sta]-OH) | inhibits the growth |

| Structure (SMILES) | IC50 (plasmepsin II) | growth of P. falciparum in red blood cells in vitro (P. falciparum) |
| --- | --- | --- |
| CCCCCc1ccc(C(=O)N(CCN(CCCC)CCCC)Cc2ccc(-c3ccc(OCCO)cc3)cc2)cc1 [Example 53] | 125 nM | – |
| CCCCCc1ccc(C(=O)N(CCN(CCCC)CCCC)Cc2ccc(-c3cncnc3)cc2)cc1 [Example 57] | 351 nM | – |
